Molecular target: T1, TcGPCR (G-protein-coupled neuropeptide receptor) (Tetranychus cinnabarinus, UniProt A0A2L1GE98)
T1 construct: full ORF in pcDNA3.1(+), transient expression in CHO-WTA11 cells with aequorin and Galpha16; seven TM helices, rhodopsin-like; T. urticae orthologue locus tetur02g03830
T1 sequence (A0A2L1GE98 1-513): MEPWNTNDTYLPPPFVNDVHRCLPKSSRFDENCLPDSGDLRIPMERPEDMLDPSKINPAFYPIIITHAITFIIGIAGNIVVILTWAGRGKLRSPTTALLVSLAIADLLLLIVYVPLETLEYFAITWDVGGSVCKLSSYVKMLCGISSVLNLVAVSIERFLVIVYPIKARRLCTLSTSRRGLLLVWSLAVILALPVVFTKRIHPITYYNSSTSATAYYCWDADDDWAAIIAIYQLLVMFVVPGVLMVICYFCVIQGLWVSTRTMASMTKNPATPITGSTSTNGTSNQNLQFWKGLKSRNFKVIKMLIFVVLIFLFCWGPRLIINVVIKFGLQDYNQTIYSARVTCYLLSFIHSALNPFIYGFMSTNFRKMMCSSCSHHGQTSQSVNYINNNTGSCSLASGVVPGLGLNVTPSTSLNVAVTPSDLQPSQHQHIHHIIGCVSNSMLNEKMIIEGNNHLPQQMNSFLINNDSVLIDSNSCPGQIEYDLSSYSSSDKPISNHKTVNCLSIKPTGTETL
Assay: aequorin luminescence calcium mobilization in transfected CHO-WTA11 cells
Assay type: cell-based
Description: aequorin luminescence calcium mobilization in transfected CHO-WTA11 cells on TcGPCR (G-protein-coupled neuropeptide receptor) | CHO cells expressing TcGPCR was induced by scopoletin in a concentration-dependent manner

## COc1cc2ccc(=O)oc2cc1O [scopoletin]
  EC50: 280 nM

From paper PMC6414448, “Acaricidal Mechanism of Scopoletin Against Tetranychus cinnabarinus” (Frontiers in Physiology, 2019)
